# Laboratory results taken from patent publication US20100003246A1, “Novel heterocyclic compounds and uses therof” (priority 2008, published 2010).
# Target: T1, b-Raf(V600E) (Homo sapiens, UniProt P15056, V600E)
# T1 construct: made in house
# Assay: Raf/Mek Amplified Luminescence Proximity Homogeneous Assay (Alpha Screen), b-Raf(V600E)
# Format: biochemical
# Conditions: mutant b-Raf(V600E), read-out: mut-b-RAF (IC50 in uM)
# Procedure, shortened: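 IC50 derived by non-linear regression from AlphaScreen luminescence of phospho-MEK (anti-p-MEK antibody). Reaction: ~4 pM b-Raf(V600E), ~10 nM kinase-dead biotinylated Mek, 60 min compound pre-incubation, then 3 h with ATP at room temperature in pH 7.5 Tris/MgCl2/DTT buffer, quenched with EDTA.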
# T1 sequence (P15056 whole entry V600E): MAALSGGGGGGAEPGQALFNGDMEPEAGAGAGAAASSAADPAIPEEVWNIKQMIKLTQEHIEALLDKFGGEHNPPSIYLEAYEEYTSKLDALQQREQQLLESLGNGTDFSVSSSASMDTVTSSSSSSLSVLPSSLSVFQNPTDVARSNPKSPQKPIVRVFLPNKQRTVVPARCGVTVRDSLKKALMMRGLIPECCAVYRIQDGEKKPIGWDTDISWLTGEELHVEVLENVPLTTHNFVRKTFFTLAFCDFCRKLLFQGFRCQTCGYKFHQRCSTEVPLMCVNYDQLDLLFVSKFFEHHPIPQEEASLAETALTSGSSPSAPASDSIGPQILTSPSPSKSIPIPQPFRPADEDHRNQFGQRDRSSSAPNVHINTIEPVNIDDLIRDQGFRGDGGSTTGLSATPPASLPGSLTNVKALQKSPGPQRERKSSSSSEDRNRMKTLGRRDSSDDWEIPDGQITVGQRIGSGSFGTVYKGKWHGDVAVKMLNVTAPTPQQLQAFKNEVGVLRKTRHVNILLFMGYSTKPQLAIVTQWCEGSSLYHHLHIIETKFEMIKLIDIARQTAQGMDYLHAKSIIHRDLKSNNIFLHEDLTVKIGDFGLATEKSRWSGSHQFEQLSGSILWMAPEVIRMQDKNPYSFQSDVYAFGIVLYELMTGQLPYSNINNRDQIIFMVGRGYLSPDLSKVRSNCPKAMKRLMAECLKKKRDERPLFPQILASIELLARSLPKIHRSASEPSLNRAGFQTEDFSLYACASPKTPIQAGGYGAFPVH
row,Compound,IC50
1,"Cc1cc(-c2[nH]c(-c3ccc(F)cc3)nc2-c2ccncc2)cnc1N [Compound 152, 5-(2-(4-fluorophenyl)-4-(pyridin-4-yl)-1H-imidazol-5-yl)-3-methylpyridin-2-amine]",0.0658 µM
2,"COc1cc(-c2[nH]c(-c3ccc(F)cc3)nc2-c2ccnc(O)n2)cnc1N [Compound 180, 4-(5-(6-amino-5-methoxypyridin-3-yl)-2-(4-fluorophenyl)-1H-imidazol-4-yl)pyrimidin-2-ol]",0.892 µM
3,"COC(=O)N[C@@H](C)CNc1nccc(-c2nc(C(C)(C)C)[nH]c2-c2cnc3[nH]ccc3c2)n1 [Compound 262, (S)-methyl 1-(4-(2-tert-butyl-5-(1H-pyrrolo[2,3-b]pyridin-5-yl)-1H-imidazol-4-yl)pyrimidin-2-ylamino)propan-2-ylcarbamate]",0.0002 µM
4,"COC(=O)c1ccc(-c2nc(-c3ccncc3)c(-c3cnc(N)c(OC)c3)[nH]2)cc1 [Compound 103, methyl 4-(5-(6-amino-5-methoxypyridin-3-yl)-4-(pyridin-4-yl)-1H-imidazol-2-yl)benzoate]",0.0007 µM
5,"COc1cc(-c2nc(C3CCCCC3)[nH]c2-c2ccncc2)cnc1N [Compound 118, 5-(2-cyclohexyl-5-(pyridin-4-yl)-1H-imidazol-4-yl)-3-methoxypyridin-2-amine]",0.002 µM
6,"COc1cc(-c2[nH]c(-c3ccc4[nH]ccc4c3)nc2-c2ccncc2)cnc1N [Compound 178, 5-(2-(1H-indol-5-yl)-4-(pyridin-4-yl)-1H-imidazol-5-yl)-3-methoxypyridin-2-amine]",0.0009 µM
7,"COc1cc(-c2nc(C(C)(C)C)[nH]c2-c2ccnc(NC[C@H](C)NC(=O)C(F)(F)F)n2)cnc1N [Compound 206, (S)-N-(1-(4-(4-(6-amino-5-methoxypyridin-3-yl)-2-tert-butyl-1H-imidazol-5-yl)pyrimidin-2-ylamino)propan-2-yl)-2,2,2-trifluoroacetamide]",0.0003 µM
8,"CNc1nccc(-c2[nH]c(-c3ccccc3)nc2-c2cnc(N)c(OC)c2)n1 [Compound 56, 4-(4-(6-amino-5-methoxypyridin-3-yl)-2-phenyl-1H-imidazol-5-yl)-N-methylpyrimidin-2-amine]",0.0029 µM
9,"c1ccc(-c2nc(-c3ccncc3)c(-c3ccsc3)[nH]2)cc1 [Compound 57, 4-(2-phenyl-5-(thiophen-3-yl)-1H-imidazol-4-yl)pyridine]",0.62 µM
10,"COCC(=O)NCCNc1nccc(-c2nc(-c3ccc(F)cc3)[nH]c2-c2cc(C)c3ncnn3c2)n1 [Compound 202, N-(2-(4-(2-(4-fluorophenyl)-5-(8-methyl-[1,2,4]triazolo[1,5-a]pyridin-6-yl)-1H-imidazol-4-yl)pyrimidin-2-ylamino)ethyl)-2-methoxyacetamide]",0.025 µM
11,"CCS(=O)(=O)N1CCN(c2nc(-c3ccncc3)c(-c3cnc(N)c(OC)c3)[nH]2)CC1 [Compound 264, 5-(2-(4-(ethylsulfonyl)piperazin-1-yl)-4-(pyridin-4-yl)-1H-imidazol-5-yl)-3-methoxypyridin-2-amine]",0.04 µM
12,"COCC(=O)N[C@@H](C)CNc1nccc(-c2[nH]c(C(C)(C)C)nc2-c2cnc(N)c(OC)n2)n1 [Example 7, (S)—N-(1-(4-(4-(5-amino-6-methoxypyrazin-2-yl)-2-tert-butyl-1H-imidazol-5-yl)pyrimidin-2-ylamino)propan-2-yl)-2-methoxyacetamide]",0.0003 µM
13,"COc1cc(-c2[nH]c(-c3ccc(F)cc3C)nc2-c2ccncc2)cnc1N [Compound 147, 5-(2-(4-fluoro-2-methylphenyl)-4-(pyridin-4-yl)-1H-imidazol-5-yl)-3-methoxypyridin-2-amine]",0.0016 µM
14,"N#Cc1cc(-c2[nH]c(-c3ccccc3)nc2-c2ccncc2)cnc1N [Compound 87, 2-amino-5-(2-phenyl-4-(pyridin-4-yl)-1H-imidazol-5-yl)nicotinonitrile]",0.391 µM
15,"COCC(=O)N[C@@H](C)CNc1nccc(-c2oc(-c3ccc(F)cc3)nc2-c2cnc(N)c(OC)c2)n1 [Compound 214, (S)-N-(1-(4-(4-(6-amino-5-methoxypyridin-3-yl)-2-(4-fluorophenyl)oxazol-5-yl)pyrimidin-2-ylamino)propan-2-yl)-2-methoxyacetamide]",0.001 µM
16,"COc1cc(-c2nc(C(C)(C)C)[nH]c2-c2ccnc(NC[C@H](C)NC(=O)[C@@H](C)OC)n2)cnc1N [Compound 225, (R)-N-((S)-1-(4-(4-(6-amino-5-methoxypyridin-3-yl)-2-tert-butyl-1H-imidazol-5-yl)pyrimidin-2-ylamino)propan-2-yl)-2-methoxypropanamide]",0.0013 µM
17,"Nc1n[nH]c2cc(-c3[nH]c(-c4ccccc4)nc3-c3ccncc3)cc(F)c12 [Compound 30, 4-fluoro-6-(2-phenyl-4-(pyridin-4-yl)-1H-imidazol-5-yl)-1H-indazol-3-amine]",0.528 µM
18,"Nc1ncc(-c2[nH]c(-c3ccccc3)nc2-c2ccncc2)cc1Cl [Compound 46, 3-chloro-5-(2-phenyl-4-(pyridin-4-yl)-1H-imidazol-5-yl)pyridin-2-amine]",0.0287 µM
19,"COc1cc(-c2[nH]c(-c3ccc(F)cc3)nc2-c2ccnc(NCCNS(=O)(=O)C3CC3)n2)cnc1N [Compound 98, N-(2-(4-(5-(6-amino-5-methoxypyridin-3-yl)-2-(4-fluorophenyl)-1H-imidazol-4-yl)pyrimidin-2-ylamino)ethyl)cyclopro-panesulfonamide]",0.0001 µM
20,"COc1cc(-c2[nH]c(-c3ccccc3)nc2-c2ccnc(N[C@H]3CCCN(S(=O)(=O)c4ccc(Cl)cc4)C3)n2)cnc1N [Compound 62, (S)-4-(5-(6-amino-5-methoxypyridin-3-yl)-2-phenyl-1H-imidazol-4-yl)-N-(1-(4-chlorophenylsulfonyl)piperidin-3-yl)pyrimidin-2-amine]",0.0003 µM
21,"COc1cc(N)ncc1-c1[nH]c(-c2ccccc2)nc1-c1ccncc1 [Compound 40, 4-methoxy-5-(2-phenyl-4-(pyridin-4-yl)-1H-imidazol-5-yl)pyridin-2-amine]",0.502 µM
22,"COC(=O)N[C@@H](C)CNc1nccc(-c2nc(C(C)(C)C)[nH]c2-c2ccc3[nH]ccc3c2)n1 [Compound 240, (S)-methyl 1-(4-(2-tert-butyl-5-(1H-indol-5-yl)-1H-imidazol-4-yl)pyrimidin-2-ylamino)propan-2-ylcarbamate]",0.0138 µM
23,"COc1cc(-c2nc(C(C)(C)C)[nH]c2-c2ccnc(NCC(C)C)n2)cnc1N [Compound 209, 4-(4-(6-amino-5-methoxypyridin-3-yl)-2-tert-butyl-1H-imidazol-5-yl)-N-isobutylpyrimidin-2-amine]",0.0001 µM
24,"COc1cc(-c2[nH]c(-c3ccc(F)cc3)nc2-c2ccoc2)cnc1N [Compound 134, 5-(2-(4-fluorophenyl)-4-(furan-3-yl)-1H-imidazol-5-yl)-3-methoxypyridin-2-amine]",0.0014 µM

# The remaining lines, values ahead:
row,IC50,Compound
1,0.0062 µM,"COc1cc(Nc2nccc(-c3[nH]c(C(C)(C)C)nc3-c3nc(OC)c(N)nc3C)n2)ccn1 [Compound 253, 4-(4-(5-amino-6-methoxy-3-methylpyrazin-2-yl)-2-tert-butyl-1H-imidazol-5-yl)-N-(2-methoxypyridin-4-yl)pyrimidin-2-amine]"
2,0.0004 µM,"COc1cc(-c2nc(C(C)(C)C)[nH]c2-c2ccnc(Nc3cccc(C(F)(F)F)c3)n2)cnc1N [Compound 191, 4-(4-(6-amino-5-methoxypyridin-3-yl)-2-tert-butyl-1H-imidazol-5-yl)-N-(3-(trifluoromethyl)phenyl) pyrimidin-2-amine]"
3,0.229 µM,"FC(F)(F)c1ccc(-c2nc(-c3ccncc3)c(-c3ccncc3)[nH]2)cc1 [Compound 84, 4,4′-(2-(4-(trifluoromethyl)phenyl)-1H-imidazole-4,5-diyl)dipyridine]"
4,0.0299 µM,"COc1cc(-c2nccc(-c3[nH]c(C(C)(C)C)nc3-c3cnc(N)c(OC)c3)n2)cnc1N [Compound 186, 5-(4-(4-(6-amino-5-methoxypyridin-3-yl)-2-tert-butyl-1H-imidazol-5-yl)pyrimidin-2-yl)-3-methoxypyridin-2-amine]"
5,0.0005 µM,"COc1ccc(Cl)cc1-c1nc(-c2ccncc2)c(-c2cnc(N)c(OC)c2)[nH]1 [Compound 133, 5-(2-(5-chloro-2-methoxyphenyl)-4-(pyridin-4-yl)-1H-imidazol-5-yl)-3-methoxypyridin-2-amine]"
6,0.038 µM,"COc1cc(-c2[nH]c(-c3ccccc3)nc2C2=CCOCC2)cnc1N [Compound 80, 5-(4-(3,6-dihydro-2H-pyran-4-yl)-2-phenyl-1H-imidazol-5-yl)-3-methoxypyridin-2-amine]"
7,0.003 µM,"COc1cc(Nc2nccc(-c3[nH]c(C)nc3-c3cnc(N)c(OC)c3)n2)ccn1 [Compound 244, 4-(4-(6-amino-5-methoxypyridin-3-yl)-2-methyl-1H-imidazol-5-yl)-N-(2-methoxypyridin-4-yl)pyrimidin-2-amine]"
8,0.0038 µM,"COc1nc(-c2nc(C(C)(C)C)[nH]c2-c2ccnc(NC[C@H](C)NC(=O)[C@H](C)OC)n2)c(C)nc1N [Compound 254, (S)-N-((S)-1-(4-(4-(5-amino-6-methoxy-3-methylpyrazin-2-yl)-2-tert-butyl-1H-imidazol-5-yl)pyrimidin-2-ylamino)propan-2-yl)-2-methoxypropanamide]"
9,0.0005 µM,"COc1cc(-c2[nH]c(-c3cccc(C)c3)nc2-c2ccncc2)cnc1N [Compound 110, 3-methoxy-5-(4-(pyridin-4-yl)-2-tolyl-1H-imidazol-5-yl)pyridin-2-amine]"
10,0.0003 µM,COc1cc(-c2nc(C(C)(C)C)[nH]c2-c2ccnc(NC[C@H](C)O)n2)cnc1N [Example 6]
11,0.0001 µM,"CNc1nccc(-c2[nH]c(C(C)(C)C)nc2-c2cnc(N)c(OC)c2)n1 [Compound 210, 4-(4-(6-amino-5-methoxypyridin-3-yl)-2-tert-butyl-1H-imidazol-5-yl)-N-methylpyrimidin-2-amine]"
12,0.0004 µM,"COc1cc(-c2[nH]c(-c3ccccc3Cl)nc2-c2ccncc2)cnc1N [Compound 135, 5-(2-(2-chlorophenyl)-4-(pyridin-4-yl)-1H-imidazol-5-yl)-3-methoxypyridin-2-amine]"
